Assay results taken from PubChem BioAssay AID434957 (The Scripps Research Institute Molecular Screening Center, 2010).
pIC50: −log10 of the molar value. Activity calls are given as the source filed them.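 How the source made its calls: active means IC50, the dose halving KLF5 reporter signal, at most 10 µM; inactive means IC50 above 10 µM or none.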

What follows are compounds tested on DLD-1 KLF5 promoter luciferase reporter, luminescence (assay: KLF5 luciferase suppression by analogs – luminescence, DLD-1 cells, round 1, SAR follow-up (AID 434957)).
Compound `CC(C)(C)c1ccc(-c2noc(CCC(=O)Nc3ccccc3)n2)cc1` has a pIC50 of 6.93. With `CC(C)C(=O)Nc1ccc2nn(-c3ccc(Cl)cc3)nc2c1` the IC50 was 26.3 µM (inactive). `CCNC(=O)c1sc(NC(=O)c2ccc3ncsc3c2)nc1C` was tested, and the IC50 was > 39.8 µM (inactive). `CCOc1ccc(NC(=O)CCc2nc(-c3ccc(C(C)(C)C)cc3)no2)cc1` gave a pIC50 of 6.54. In the case of `Nc1cc2nn(-c3ccccc3)nc2cc1Cl`, the IC50 was > 39.8 µM (inactive). In the case of `O=C(Nc1cc2nn(-c3ccccc3)nc2cc1Cl)C1COc2ccccc2C1` (stereo unspecified), the IC50 was > 39.8 µM (inactive). With `COc1ccc(-n2nc3ccc(NC(=O)C(C)(C)C)cc3n2)cc1` the IC50 was > 39.8 µM (inactive). For `CC(C)(C)c1ccc(-c2noc(CCc3nc4ccccc4[nH]3)n2)cc1`, the IC50 was > 39.8 µM (inactive). For `CC(C)(C)c1ccc(-c2coc(CCC(=O)Nc3ccccn3)n2)cc1`, the IC50 was 19.4 µM (inactive). For `CC(C)c1ccc2nc(Nc3nc4ccc(F)cc4s3)sc2c1`, the IC50 was > 39.8 µM (inactive). For `CCOc1ccc2nc(Nc3nc4ccc(F)cc4s3)sc2c1`, the IC50 was > 39.8 µM (inactive). In the case of `COc1ccc2nc(Nc3nc4ccc(F)cc4s3)sc2c1`, the IC50 was > 39.8 µM (inactive). `Cc1ccc(OCC(=O)Nc2ccc3nn(-c4cccc(C(F)(F)F)c4)nc3c2)cc1C` was tested, and the IC50 was > 39.8 µM (inactive). Work on `CC(C)(C)c1ccc(-c2noc(CCC(=O)Nc3ccc(N4CCOCC4)nc3)n2)cc1` yielded a pIC50 of 6.57. `CC(=O)c1sc(NC(=O)c2ccc3ncsc3c2)nc1-c1ccccc1` was tested, and the IC50 was > 39.8 µM (inactive). `CC(C)(C)c1ccc(-c2noc(CCC(=O)Nc3ccccn3)n2)cc1` gave a pIC50 of 6.80. Work on `CCNC(=O)c1ccc2nc(Nc3nc4ccc(F)cc4s3)sc2c1` yielded a pIC50 of 7.25. Work on `CC(C)(C)c1ccc(-c2noc(CCC(=O)NCc3ccccc3)n2)cc1` yielded a pIC50 of 5.45. `CC(=O)c1sc(NC(=O)c2ccc3ncsc3c2)nc1C` was tested, and the IC50 was > 39.8 µM (inactive). `CC1(C)CC(=O)c2sc(NC(=O)c3ccc4ncsc4c3)nc2C1` was tested, and the IC50 was > 39.8 µM (inactive). `CC(C)(C)c1ccc(-c2noc(CCCC(=O)Nc3ccccc3Cl)n2)cc1` showed a pIC50 of 6.09. With `COc1ccc(-n2nc3ccc(NC(=O)C4CCN(S(=O)(=O)c5ccc(Cl)cc5)CC4)cc3n2)cc1` the IC50 was > 39.8 µM (inactive). In the case of `CC(C)(C)c1ccc(-c2noc(CCC(=O)Nc3ccncc3)n2)cc1`, the pIC50 was 6.97. `Cc1ccc(-n2nc3cc(Cl)c(NC(=O)c4cccnc4)cc3n2)cc1` was tested, and the IC50 was > 39.8 µM (inactive). In the case of `CC(C)(C)C(=O)Nc1ccc2nn(-c3ccc(F)cc3)nc2c1`, the pIC50 was 5.34. `COc1ccc(-n2nc3cc(C)c(NC(=O)C(C)C)cc3n2)cc1` was tested, and the IC50 was > 39.8 µM (inactive). Work on `CC(C)(C)C(=O)Nc1ccc2nn(-c3ccccc3)nc2c1` yielded a pIC50 of 5.50. `O=C(Cc1ccccc1)Nc1cc2nn(-c3ccccc3)nc2cc1Cl` showed a pIC50 of 5.10. For `O=C(COc1ccccc1)Nc1ccc2nn(-c3cccc(Cl)c3)nc2c1`, the IC50 was > 39.8 µM (inactive). With `CC(NC(=O)c1ccccc1)c1nc(-c2ccc(C(C)(C)C)cc2)no1` (stereo unspecified) the IC50 was > 39.8 µM (inactive). `CC(=O)Nc1ccc2nc(Nc3nc4ccc(F)cc4s3)sc2c1` was tested, and the IC50 was > 39.8 µM (inactive). `Cc1cccc(NC(=O)CCc2nc(-c3ccc(C(C)(C)C)cc3)no2)c1` showed a pIC50 of 6.64. For `Cc1ccc(-n2nc3ccc(NC(=O)COc4ccc(C)c(C)c4)cc3n2)cc1`, the IC50 was > 39.8 µM (inactive). `Cc1nc(NC(=O)c2ccc3ncsc3c2)sc1C(=O)N(C)C` was tested, and the IC50 was > 39.8 µM (inactive). Work on `CN(C)C(=O)c1ccc2nc(Nc3nc4ccc(F)cc4s3)sc2c1` yielded a pIC50 of 7.88. With `CS(=O)(=O)c1ccc2nc(Nc3nc4ccc(F)cc4s3)sc2c1` the IC50 was > 39.8 µM (inactive).
